# Experimental data: ChEMBL document CHEMBL1125047, “Novel glutamic acid derived cholecystokinin receptor ligands” (J Med Chem, 1990)
# Target: T1, Cholecystokinin receptor type A (Rattus norvegicus, UniProt P30551)
# T1 sequence (P30551 whole entry): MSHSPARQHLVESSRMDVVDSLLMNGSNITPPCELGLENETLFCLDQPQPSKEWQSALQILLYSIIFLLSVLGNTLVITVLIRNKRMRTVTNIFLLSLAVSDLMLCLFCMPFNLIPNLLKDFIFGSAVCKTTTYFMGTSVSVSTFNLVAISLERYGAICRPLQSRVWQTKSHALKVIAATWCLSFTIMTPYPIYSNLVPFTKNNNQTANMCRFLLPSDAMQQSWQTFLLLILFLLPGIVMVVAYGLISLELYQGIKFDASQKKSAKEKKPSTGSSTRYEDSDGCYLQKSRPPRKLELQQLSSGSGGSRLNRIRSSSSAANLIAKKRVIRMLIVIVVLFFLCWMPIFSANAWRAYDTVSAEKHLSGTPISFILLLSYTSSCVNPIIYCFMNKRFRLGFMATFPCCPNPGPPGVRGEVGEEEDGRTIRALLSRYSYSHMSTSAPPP
# Assay: Inhibition of binding of [125I]- CCK-33 to rat pancreas
row,Compound,IC50
1,CCCCCN(CCCCC)C(=O)C(CCC(=O)OCc1ccccc1)NC(=O)Nc1ccc(Cl)cc1 (stereo not given),9300 nM
2,CCCCCN(CCCCC)C(=O)C(CCC(=O)OCC)NC(=O)Nc1ccc(Cl)cc1 (stereo not given),1200 nM
3,CCCCCN(CCCCC)C(=O)C(CCC(=O)N1CCCC1)NC(=O)Nc1ccc(Cl)cc1 (stereo not given),680 nM
4,"CCCCCN(CCCCC)C(=O)C(CCC(=O)O)NC(=O)Nc1cccc(OC)c1 (single isomer, unassigned; 13)",540 nM
5,"CCCCCN(CCCCC)C(=O)C(CCC(=O)N1CCCC1)NC(=O)Nc1cccc(OC)c1 (single isomer, unassigned; 15)",170 nM
6,"CCCCCN(CCCCC)C(=O)C(CCC(=O)N1CCCC1)NC(=O)Nc1cccc(OC)c1 (single isomer, unassigned; 16)",120 nM
7,CCCN(CCC)C(=O)C(CCC(=O)O)NC(=O)c1ccccc1 (stereo not given) [PROGLUMIDE],250000 nM

# Stronger by IC50, values ahead:
row,IC50,Compound
1,59 nM,"O=C(O)CCC(NC(=O)c1cc2ccccc2[nH]1)C(=O)N(C1CCCCC1)C1CCCCC1 (single isomer, unassigned)"
2,4.5 nM,"CCCCCN(CCCCC)C(=O)C(CCC(=O)O)NC(=O)Nc1cccc(OC)c1 (single isomer, unassigned; 14)"
3,18 nM,CCCCCN(CCCCC)C(=O)C(CCC(=O)O)NC(=O)c1ccc(Cl)c(Cl)c1 (stereo not given) [LORGLUMIDE]
